# Structures can show the parent of a compound that is named as a salt.
# Columns and labels:
# [1] = Solubility of synthesized tartrate salt and free base of compound 4; type: physicochemical; settings: synthesized tartrate salt; read-out: solubility (can be dissolved)
# Procedure: The free base of compound 4 has a solubility of 0.8 mg/ml
# [2] = test system: Cooperia oncophora; experiment: In vivo efficacy in challenged calves, percent reduction of nematodes; settings: subcutaneous injection
# Procedure: (§1) Calves of 2-6 months of age were challenged with Ostertagia ostertagi (approx. 20,000 larvae L3/calf) on Day 0 and Cooperia oncophora (approx. 20,000 larvae L3/calf) on Day 1 by oral drench. At day 28, animals were treated by subcutaneous injection at a dose of 0.5 mg/kg (resp. 0.75, 1, 1.5 or 2.5 mg/kg) of a solution of compound 5. On days 35-37 animals were necropsied for extraction and counting of nematodes present. Efficacy was calculated as the percent reduction of nematodes compared to the control group. For calculation the geometric mean of the nematode numbers in treatment and control group was determined (7 animals in treatment group, 8 animals in control group). The solution A used for injection contained in 1 ml: compound 5 (100 mg), L-tartaric acid 52.6 mg, propylene glycol 400 mg, benzyl alcohol 20 mg, water for injection up to 1 ml. A control group was treated by injection of vehicle only. The solution B used for injection contained in 1 ml: (50 mg Compound 5; 24.74 mg L-tartaric acid, water for injection up to 1 ml).
# [3] = test system: Ostertagia ostertagi; experiment: as above; settings: subcutaneous injection
# Procedure: as §1
# [4] = Solution A (with propylene glycol), 0.5 mg/kg bodyweight
# [5] = Solution A (with propylene glycol), 1.5 mg/kg bodyweight
# [6] = Solution A (with propylene glycol), 2.5 mg/kg bodyweight
# [7] = Solution B (without propylene glycol), 0.75 mg/kg bodyweight
# [8] = Solution B (without propylene glycol), 1 mg/kg bodyweight
Structure (SMILES),solubility [1] [mg/mL],"reduction of C. oncophora [2, 4] [%]","reduction of C. oncophora [2, 5] [%]","reduction of C. oncophora [2, 6] [%]","reduction of C. oncophora [2, 7] [%]","reduction of C. oncophora [2, 8] [%]","reduction of O. ostertagi [3, 4] [%]","reduction of O. ostertagi [3, 5] [%]","reduction of O. ostertagi [3, 6] [%]","reduction of O. ostertagi ([3]; Solution B (without propylene glycol), 0.5 mg/kg bodyweight) [%]","reduction of O. ostertagi [3, 7] [%]","reduction of O. ostertagi [3, 8] [%]"
"CCOc1cc(NCCNC(=O)/C=C/C(F)(F)F)ccn1 [tartrate salt of compound 4, tartrate salt of (E)-N-[2-[(2-ethoxy-4-pyridyl)amino]ethyl]-4,4,4-trifluoro-but-2-enamide]",145,,,,,,,,,,,
COc1cc(NCCNC(=O)/C=C/C(C)(F)F)ccn1 [tartrate salt of compound 5],,97.0,100,100,94.0,96.8,98.7,100,99.8,78.6,99.8,99.9

# Source: US20210107874A1, “PHARMACEUTICAL FORMULATION OF CROTONYLAMINOPYRIDINE SALT” (priority 2017, published 2021)
